This passage reports Km results from paper PMC7145991, “Biochemical Functions of Glutathione S-Transferase Family of Salix babylonica” (Frontiers in Plant Science, 2020).

Common to all, as to assay: spectrophotometric GSH-CDNB conjugation, nonlinear regression
Holding throughout (assay type): biochemical
Common to all, as to details: GSH fixed 1.0 mM; 50 mM potassium phosphate pH 6.5; 25 °C; read-out: K mCDNB /

The target of assay [1] is T1, SbGSTU13 (Salix babylonica, UniProt A0A4Y5R0L5).
T1 construct: gene GSTU13; full length, 6xHis-tag (pET30a), E. coli BL21 (DE3), Ni-Sepharose
T1 sequence (A0A4Y5R0L5 1-222): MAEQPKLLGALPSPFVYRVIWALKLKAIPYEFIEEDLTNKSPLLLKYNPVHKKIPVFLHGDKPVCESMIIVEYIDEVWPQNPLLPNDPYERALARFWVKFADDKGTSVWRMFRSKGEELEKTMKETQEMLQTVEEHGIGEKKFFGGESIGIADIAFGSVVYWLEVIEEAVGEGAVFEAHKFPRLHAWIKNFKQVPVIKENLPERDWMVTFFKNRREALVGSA
From the text:
spectrophotometric GSH-CDNB conjugation, nonlinear regression on SbGSTU13

Assay [2] deals with T2, SbGSTU10 (Salix babylonica, UniProt A0A4Y5QZX3).
T2 construct: gene GSTU10; full length, 6xHis-tag (pET30a), E. coli BL21 (DE3), Ni-Sepharose
The text has this: spectrophotometric GSH-CDNB conjugation, nonlinear regression on SbGSTU10

Assay [3] deals with T3, SbGSTU12 (Salix babylonica, UniProt A0A4Y5R0C1).
T3 construct: gene GSTU12; full length, 6xHis-tag (pET30a), E. coli BL21 (DE3), Ni-Sepharose
From the text: spectrophotometric GSH-CDNB conjugation, nonlinear regression on SbGSTU12

Assay [4] has as its target T4, SbGSTU7 (Salix babylonica, UniProt A0A4Y5R087).
T4 construct: gene GSTU7; full length, 6xHis-tag (pET30a), E. coli BL21 (DE3), Ni-Sepharose
The text has this: spectrophotometric GSH-CDNB conjugation, nonlinear regression on SbGSTU7

Assay [5] deals with T5, SbGSTU3 (Salix babylonica, UniProt A0A4Y5R0K8).
T5 construct: gene GSTU3; full length, 6xHis-tag (pET30a), E. coli BL21 (DE3), Ni-Sepharose
T5 sequence (A0A4Y5R0K8 1-220): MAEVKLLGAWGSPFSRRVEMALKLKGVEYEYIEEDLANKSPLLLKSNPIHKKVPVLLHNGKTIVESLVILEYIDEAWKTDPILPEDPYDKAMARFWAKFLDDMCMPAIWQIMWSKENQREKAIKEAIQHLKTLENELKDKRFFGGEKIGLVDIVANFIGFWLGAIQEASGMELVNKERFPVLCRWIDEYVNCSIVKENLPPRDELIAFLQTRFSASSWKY
From the text:
spectrophotometric GSH-CDNB conjugation, nonlinear regression on SbGSTU3

The target in assay [6] is T6, SbGSTU1 (Salix babylonica, UniProt A0A4Y5R2M7).
T6 construct: gene GSTU1; full length, 6xHis-tag (pET30a), E. coli BL21 (DE3), Ni-Sepharose
From the text:
spectrophotometric GSH-CDNB conjugation, nonlinear regression on SbGSTU1

T4 sequence (A0A4Y5R087 1-219): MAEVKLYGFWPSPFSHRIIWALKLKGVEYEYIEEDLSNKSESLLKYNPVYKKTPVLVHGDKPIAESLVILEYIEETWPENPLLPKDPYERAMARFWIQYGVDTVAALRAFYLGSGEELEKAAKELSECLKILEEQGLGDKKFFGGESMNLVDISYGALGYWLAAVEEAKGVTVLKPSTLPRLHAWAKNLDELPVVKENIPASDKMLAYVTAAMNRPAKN
T2 sequence (A0A4Y5QZX3 1-220): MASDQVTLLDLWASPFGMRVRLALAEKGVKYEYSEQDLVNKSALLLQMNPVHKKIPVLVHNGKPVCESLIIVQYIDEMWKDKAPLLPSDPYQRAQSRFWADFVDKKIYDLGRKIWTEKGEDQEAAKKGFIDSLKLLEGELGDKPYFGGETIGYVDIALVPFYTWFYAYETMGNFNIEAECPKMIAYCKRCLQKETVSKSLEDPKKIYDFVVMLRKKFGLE
T6 sequence (A0A4Y5R2M7 1-219): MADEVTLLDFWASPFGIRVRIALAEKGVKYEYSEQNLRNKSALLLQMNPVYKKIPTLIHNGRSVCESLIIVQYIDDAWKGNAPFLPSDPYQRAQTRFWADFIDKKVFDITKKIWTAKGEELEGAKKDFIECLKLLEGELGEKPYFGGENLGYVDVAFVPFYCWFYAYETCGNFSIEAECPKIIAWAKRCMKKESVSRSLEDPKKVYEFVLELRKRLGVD
T3 sequence (A0A4Y5R0C1 1-222): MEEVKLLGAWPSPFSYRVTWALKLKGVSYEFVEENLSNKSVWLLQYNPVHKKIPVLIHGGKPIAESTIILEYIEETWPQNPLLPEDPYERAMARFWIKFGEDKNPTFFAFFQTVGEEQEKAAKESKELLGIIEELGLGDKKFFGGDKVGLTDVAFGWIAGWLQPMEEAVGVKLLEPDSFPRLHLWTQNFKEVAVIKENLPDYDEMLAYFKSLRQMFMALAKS

`O=[N+]([O-])c1ccc(Cl)c([N+](=O)[O-])c1` [CDNB, 1-chloro-2,4-dinitrobenzene]: the Km in assay [1] stood at 1270 ± 62 µM; in assay [2], 156 ± 2 µM; in assay [3], 2140 ± 272 µM; in assay [4], 2070 ± 165 µM; in assay [5], 1000 ± 33 µM; in assay [6], 201 ± 4 µM.
